{
  "source": "patent US4786648A",
  "about": "“O-substituted tetrahydropyridine oxime cholinergic agents” (Warner-Lambert Company, priority 1987, dated 1988)",
  "key": {"[1]": {"system": "laboratory rats given scopolamine", "test": "SIS, scopolamine induced swimming test", "type": "in vivo, rat", "settings": "for minimal effective dose: Rattus norvegicus, sc, Tables 3 and 4, Subcutaneous, five minute test period, read-out: Minimal Effective Dose for Reversal of Scopolamine-Induced Swimming Hyperactivity; for reversal of scopolamine-induced swimming hyperactivity: rats given scopolamine", "procedure": "In a second screening assay, designated SIS, the scopolamine induced swimming test, the ability of representative compounds of the present invention to reverse the hyperactive swimming behavior of laboratory rats given scopolamine was assessed. In this test, untreated rats will generally swim between 20 to 30 meters during a five minute test period. […] This swimming hyperactivity can be reversed by administration of physostigmine or the cholinergic agonist, arecoline. The effect of scopolamine is centrally mediated; the ability of a test compound to reverse the hyperactive swimming behavior induced by scopolamine is thus a measure of the central cholinergic activity of the compound."}, "[2]": {"target": "central muscarinic binding site", "test": "RCMD screening assay (inhibition of radio-labeled cis-methyldioxolane binding, rat cerebral cortex tissue)", "procedure": "Similarly, in the RCMD screening assay, described more fully by T. W. Vickeroy, et al, J. Pharmacol. Exp. Ther., 229 (3): 747 (1984), rat cerebral cortex tissue was treated with radio-labeled cis-methyldioxolane,a known muscarinic binding site agonist. The concentrations of test compounds required to inhibit 50% of the binding of this muscarinic agonist were then determined."}, "[3]": {"target": "central muscarinic binding site", "settings": "radio-labeled quinuclidinyl benzilate (antagonist), rat cerebral cortex"}, "[4]": {"system": "patients clinically diagnosed as having presenile primary degenerative dementia", "settings": "double blind study, Christie, et al (1981); cited from earlier work"}, "[5]": {"system": "age-related cognitive deficits", "settings": "H. P. Davis, et al (1983); cited from earlier work"}, "[6]": {"system": "Aged humans and nonhuman primates with decreased cognition", "settings": "acetylcholinesterase inhibitor treatment; cited from earlier work"}, "[7]": {"settings": "Table 2, radio-labeled cis-methyldioxolane (agonist)"}, "[8]": {"settings": "Table 1, radio-labeled cis-methyldioxolane (agonist)"}},
  "note": "pIC50: −log10 of the molar value. Read-outs that look alike come from different tables or passages of the source.",
  "data": [
    {"smiles": "CON=CC1=CCN(C)CC1", "note": "[Example 14, 1,2,3,6-Tetrahydro-1-methyl-4-pyridinecarboxaldehyde, O-Methyloxime]", "values": [
      {"measurement": "minimal effective dose", "setting": "[1]; scopolamine 0.1 mg/kg, rats", "value": 32, "unit": "mg/kg"},
      {"measurement": "pIC50", "setting": "[2]; [7]", "value": "< 10.00"},
      {"measurement": "pIC50", "setting": "[3]; Table 2", "value": "< 9.00"}
    ]},
    {"smiles": "CCON=CC1=CCCN(C)C1", "note": "[Example 6, 1,2,5,6-Tetrahydro-1-methyl-3-pyridinecarboxaldehyde, O-Ethyloxime]", "values": [
      {"measurement": "pIC50", "setting": "[2]; [8]", "value": 7.55},
      {"measurement": "pIC50", "setting": "[3]; Table 1", "value": 5.00}
    ]},
    {"smiles": "CCON=CC1=CCCNC1", "note": "[Example 7, 1,2,5,6-Tetrahydro-3-pyridinecarboxaldehyde, O-ethyloxime]", "values": [
      {"measurement": "pIC50", "setting": "[2]; [8]", "value": 7.38},
      {"measurement": "pIC50", "setting": "[3]; Table 1", "value": 6.00}
    ]},
    {"smiles": "CON=CC1=CCCNC1", "note": "[Example 4, 1,2,5,6-Tetrahydro-3-pyridinecarboxaldehyde, O-Methyl oxime]", "values": [
      {"measurement": "minimal effective dose", "setting": "[1]; scopolamine 0.1 mg/kg, rats", "value": 3.2, "unit": "mg/kg"},
      {"measurement": "pIC50", "setting": "[2]; [8]", "value": 8.00},
      {"measurement": "pIC50", "setting": "[3]; Table 1", "value": 5.15}
    ]},
    {"smiles": "COC(=O)C1=CCCN(C)C1", "note": "[arecoline, methyl ester of 1,2,5,6-tetrahydro-1-methyl-3-pyridinecarboxylic acid, reference compound]", "values": [
      {"measurement": "reversal of scopolamine-induced swimming hyperactivity", "setting": "[1]", "value": "reversed"},
      {"measurement": "improvement in a test of picture recognition", "setting": "[4]", "value": "Significant improvement"}
    ]},
    {"smiles": "CON=C(C)C1=CCNCC1", "note": "[Example 13, 1-(1,2,3,6-Tetrahydro-4-pyridinyl)ethanone, O-Methyloxime]", "values": [
      {"measurement": "minimal effective dose", "setting": "[1]; scopolamine 0.1 mg/kg, rats", "value": 10, "unit": "mg/kg"}
    ]},
    {"smiles": "CON=C(C)C1=CCCNC1", "note": "[Example 8, 1-(1,2,5,6-Tetrahydro-3-pyridinyl)ethanone, O-methyloxime]", "values": [
      {"measurement": "pIC50", "setting": "[2]; [8]", "value": 7.55},
      {"measurement": "pIC50", "setting": "[3]; Table 1", "value": 5.24}
    ]},
    {"smiles": "CON=CC1=CCCN(C)C1", "note": "[Example 3, 1,2,5,6-Tetrahydro-1-methyl-3-pyridinecarboxaldehyde O-Methyloxime]", "values": [
      {"measurement": "minimal effective dose", "setting": "[1]; scopolamine 0.1 mg/kg, rats", "value": 3.2, "unit": "mg/kg"},
      {"measurement": "pIC50", "setting": "[2]; [8]", "value": 8.70},
      {"measurement": "pIC50", "setting": "[3]; Table 1", "value": 5.74}
    ]},
    {"smiles": "CON=CC1=CCNCC1", "note": "[Example 15, 1,2,3,6-Tetrahydro-4-pyridinecarboxaldehyde, O-Methyloxime]", "values": [
      {"measurement": "pIC50", "setting": "[2]; [7]", "value": "< 10.00"},
      {"measurement": "pIC50", "setting": "[3]; Table 2", "value": "> 9.00"}
    ]},
    {"smiles": "Nc1ccncc1N", "note": "[3,4-diaminopyridine]", "values": [
      {"measurement": "effect on age-related cognitive deficits", "setting": "[5]", "value": "ameliorate age-related cognitive deficits"}
    ]},
    {"smiles": "CCC(=NOC)C1=CCCNC1", "note": "[Example 2, 1-(1,2,5,6-Tetrahydro-3-pyridinyl)-1-propanone, O-Methyloxime]", "values": [
      {"measurement": "pIC50", "setting": "[2]; [8]", "value": 6.54},
      {"measurement": "pIC50", "setting": "[3]; Table 1", "value": 5.02}
    ]},
    {"smiles": "CNC(=O)Oc1ccc2c(c1)[C@]1(C)CCN(C)[C@@H]1N2C", "note": "[physostigmine, reference compound]", "values": [
      {"measurement": "memory in aged humans and nonhuman primates with decreased cognition", "setting": "[6]", "value": "improved memory"},
      {"measurement": "reversal of scopolamine-induced swimming hyperactivity", "setting": "[1]", "value": "reversed"}
    ]},
    {"smiles": "CN1[C@@H]2C[C@@H](OC(=O)[C@H](CO)c3ccccc3)C[C@H]1[C@@H]1O[C@@H]12", "note": "[scopolamine, reference compound]", "values": [
      {"measurement": "increase of swimming distance above baseline values", "setting": "[1]; scopolamine 0.1 mg/kg, rats", "value": "75-125%"}
    ]}
  ]
}
